Assay results taken from patent US9056916B2, “Method and assay kit for detection of toxicity induced by pyrrolizidine alkaloids” (priority 2012, dated 2015).

Tests used:
Assay type in all cases: binding, rabbit
[1] = system: antiserum II; test: Competitive ELISA and cross-reactivity test of antiserum II; details: antiserum II 1:30000, pure PA as competitor
Procedure: In competitive ELISA assay, one hundred microliters of coating antigen, BSA-pyrrole adducts, in PBS buffer was added to wells of a 96-well microtiter plate. The plates were incubated at 4° C. overnight or room temperature for 2 h. Serial dilutions of the competitor, N-acetyl-L-lysine-pyrrole, were prepared in PBST buffer. The resulting solution was mixed (1:1 v/v) with diluted antiserum in 5% nonfat milk dissolved in PBST buffer. The mixture was incubated at 4° C. overnight. The following day, the same procedure as in the titer analysis was followed. The absorbance at dual wavelength (450-650 nm) was read.

[2] = system: purified N-antibody; test: Competitive Western blot of purified N-antibody; details: competitor 0.1 mM or 1 mM, concentration-dependent
Procedure: (§1) In Western and competitive Western blot assay, coating antigen was loaded and resolved by 7.5% SDS-PAGE and then transferred to nitrocellulose membranes. Blots were then blocked with 5% nonfat milk in PBST buffer for 1 h at room temperature. Blotted membranes were incubated with 1/4000 dilution of purified N-antibody in PBST buffer with 5% nonfat milk in the absence or 0.1 mM or 1 mM of pyrrole-(NHMe)2 at 4° C. overnight. The following day, after washing three times with PBST buffer, membranes were incubated with anti-rabbit IgG-horseradish peroxidase solution (1/5000 in PBST buffer with 5% nonfat milk) for 1 h at room temperature. After washing, protein bands were detected by chemiluminescence with an ECL detection kit. […] Moreover, the immune response was inhibited by pyrrole-containing competitor, pyrrole-(NHMe)2, in competitive Western blot assays, and the inhibitory effect was concentration-dependent manner (FIG. 9).

[3] = system: purified S-antibody; test: Competitive Western blot of purified S-antibody; details: competitor 0.1 mM or 1 mM, concentration-dependent
Procedure: as §1, with “S-antibody” for “N-antibody”, “pyrrole-(SMe)2” for “pyrrole-(NHMe)2”, “pyrrole-(SMe)2,” for “pyrrole-(NHMe)2,”, “(See FIG. 11).” for “(FIG. 9).”

| Compound | cross-reactivity with antiserum II [1] | also measured |
| --- | --- | --- |
| C[C@H]1C(=O)O[C@@H]2CCN3CC=C(COC(=O)[C@](C)(O)[C@]1(C)O)[C@H]23 [monocrotaline] | no cross-reactivity |  |
| pyrrole-(NHMe)2 |  | inhibition of immune response of N-antibody with BSA-pyrrole adducts [2]: inhibited |
| pyrrole-(SMe)2 |  | inhibition of immune response of S-antibody with BSA-pyrrole adducts [3]: inhibited |
| retrorsine | no cross-reactivity |  |
